# Source: US20240390453A1, “PEPTIDE HAVING HAIR LOSS PREVENTION OR HAIR GROWTH PROMOTION ACTIVITY, AND USE THEREOF” (CAREGEN CO., LTD., priority 2021, published 2024)
# How the values were obtained:
# [1] = test system: human hair follicle dermal papilla cells (HHFDPC); test: Proliferation of dermal papilla cells (MTT, absorbance at 540 nm); format: cell-based; conditions: peptide 500 nM, 72 hours, FIG. 1
# Description: While culturing human hair follicle dermal dermal papilla cells (HHFDPC), the absorbance was measured after treatment with the peptide of the present invention to confirm whether there was an effect of promoting the proliferation of the HHFDPC dermal papilla cells.
# Specifically, HHFDPC (Sciencell, USA) was seeded at 4λ10^3 cells/well in a 96-well culture plate, cultured in MSC complete medium (mesenchymal stem cell complete media, Sciencell, USA) for 24 hours, and then the medium was replaced with serum free MSC complete medium and cultured for another 24 hours. Then, the HHFDPC was treated with the peptide of SEQ ID NO: 1 prepared in the Preparation Example at concentrations of 500 nM, 5 μM, and 50 μM, respectively, and cultured at 37° C. for 72 hours. As a positive control, minoxidil was treated at a concentration of 1 μM, and as a negative control, HHFDPC without any treatment was used. Then, 10 μl of 5 mg/mL MTT solution was added and cultured in a 37° C. CO2 incubator for 4 hours to stain the cells. After removing the medium, the cells were treated with 100 μl of DMSO and shaken for 10 minutes, and the number of HHFDPC cells was confirmed by measuring absorbance at a wavelength of 540 nm using a spectrophotometer.
# p-AKT = test: Western blotting of phosphorylated AKT in HHFDPC; format: cell-based, human; conditions: peptide 500 nM, 5 μM, and 50 µM, 24 hours, FIG. 2
# Description: (§1) First, phosphorylated forms of AKT and ERK, which act as signaling molecules related to the proliferation of HHFDPC, were confirmed through Western blotting. Specifically, HHFDPC as in [Experiment Example 1-1] above was seeded at 4λ10^5 cells/well in a 6-well culture plate, cultured in MSC complete medium (mesenchymal stem cell complete media) for 24 hours, and then the medium was replaced with serum free MSC complete medium and cultured for another 24 hours. Then, the HHFDPC was treated with the peptide of SEQ ID NO: 1 prepared in the Preparation Example at concentrations of 500 nM, 5 μM, and 50 µM, respectively, and cultured at 37° C. for 24 hours. As a positive control, minoxidil was treated at a concentration of 1 μM, and as a negative control, HHFDPC without any treatment was used. Then, Western blotting was performed to detect phosphorylated AKT and phosphorylated ERK. After washing with PBS, the cells were treated with 100 μl of lysis buffer to destroy cells, thereby obtaining cell lysate. After electrophoresis using a 10% SDS-PAGE gel, it was transferred to a PVDF membrane and blocked using 5% skim milk at room temperature for 30 minutes. […] After washing again with 0.1% PBS-T (0.1% Tween-20 in PBS) three times for 15 minutes each, p-AKT and p-ERK were detected by treatment with ECL solution (GE Healthcare, USA).
# p-ERK = test: Western blotting of phosphorylated ERK in HHFDPC; format: cell-based, human; conditions: peptide 500 nM, 5 μM, and 50 µM, 24 hours, FIG. 2
# Description: as §1
# β-catenin = test: Western blotting of β-catenin moved into the nucleus of HHFDPC; format: cell-based, human; conditions: HHFDPC nuclear protein, peptide 500 nM, 5 µM, and 50 μM, 24 hours, FIG. 3
# Description: In addition, in addition to p-AKT and p-ERK, in order to confirm the activation of β-catenin, which is known to affect cell proliferation and differentiation, whether β-catenin moved into the nucleus was confirmed through Western blotting. Specifically, the HHFDPC as in [Experiment Example 1-1] was seeded in a 6-well culture plate at an amount of 4λ10^5 cells/well, cultured in MSC complete medium (mesenchymal stem cell complete media) for 24 hours. Next, the medium was replaced with serum free MSC complete medium and cultured again for 24 hours. Then, the HHFDPC was treated with the peptide of SEQ ID NO: 1 prepared in the Preparation Example at concentrations of 500 nM, […], and 50 μM, respectively, and cultured at 37° C. for 24 hours. As a positive control, minoxidil was treated at a concentration of 1 μM, and as a negative control, HHFDPC without any treatment was used. After washing with PBS, proteins in the nucleus were isolated using a nuclear protein extraction kit (Thermo scientific, USA). After electrophoresis using a 10% SDS-PAGE gel, it was transferred to a PVDF membrane and blocked using 5% skim milk at room temperature for 30 minutes. […] After washing again with 0.1% PBS-T (0.1% Tween-20 in PBS) three times for 15 minutes each, β-catenin was detected by treatment with ECL solution (GE Healthcare, USA).
# LEF-1 = test: RT-PCR of LEF-1 expression in HHFDPC; format: cell-based, human; conditions: peptide 500 nM, 5 μM, 50 μM, 24 hours, FIG. 4
# Description: (§2) Furthermore, in order to determine whether the β-catenin moves to the nucleus and is activated to affect cell proliferation and differentiation, whether the expression of LEF-1, c-Myc and cyclin D1 (cyclin D1), which act as downstream factors, increases with β-catenin activation was confirmed through RT-PCR. Specifically, in the same manner as the previous Western blotting experiment, HHFDPC cells were cultured, treated with the peptides of the Preparation Example of the present invention at concentrations of 500 nM, 5 μM, and 50 μM, respectively, and cultured at 37° C. for 24 hours. After washing the cells with PBS, RNA was isolated by treating them with 300 μl of easy blue (intron, Korea). Then, cDNA was synthesized using a cDNA synthesis kit (enzynomics, Korea) by quantifying it with nano drop, and PCR was performed using primers for LEF-1, c-Myc and cyclin D1 (base sequences of the primer are listed in Table 2 below) and PCR premix (enzynomics, Korea). Electrophoresis was performed on a 1.5% agarose gel, and then the mRNA of LEF-1, c-Myc and cyclin D1 was detected using a band analysis system (Bio-Rad gel image system).
# c-Myc = test: RT-PCR of c-Myc expression in HHFDPC; format: cell-based, human; conditions: peptide 500 nM, 5 μM, 50 μM, 24 hours, FIG. 4
# Description: as §2
# cyclin D1 = test: RT-PCR of cyclin D1 expression in HHFDPC; format: cell-based, human; conditions: peptide 500 nM, 5 μM, 50 μM, 24 hours, FIG. 4
# Description: as §2
# [2] = test system: DKK-1 protein (dickkopf-related protein 1); test: Western blotting of DKK-1 protein in DHT-treated HHFDPC; format: cell-based, human; conditions: HHFDPC with DHT 100 nM, peptide 500 nM, 5 μM, 50 μM, 24 hours, FIG. 5
# Description: DKK-1 protein (dickkopf-related protein 1) is a hair loss-related protein known to be highly expressed in individuals with hair loss, especially male pattern hair loss, and its expression is known to be promoted by hormones such as DHT (Dihydrotestosterone). Accordingly, the expression of DKK-1 protein was induced by treating HHFDPC cells with DHT together with the peptide according to the Preparation Example of the present invention, and then the expression level of DKK-1 was measured through Western blotting to determine whether there was an effect of suppressing the expression of DKK-1 protein.
# Specifically, HHFDPC as in [Experiment Example 1-1] was seeded in a 6-well culture plate at 4λ10^5 cells/well and then cultured in MSC complete medium (mesenchymal stem cell complete media) for 24 hours. Next, the medium was replaced with serum free MSC complete medium and cultured again for 24 hours. In addition, the HHFDPC was treated with the peptide of SEQ ID NO: 1 prepared in the Preparation Example at concentrations of 500 nM, 5 μM, and 50 μM, respectively, and at this time, DHT, an expression inducer of DKK-1 protein, was simultaneously treated at a concentration of 100 nM and then cultured at 37° C. for 24 hours. […] After washing again with 0.1% PBS-T (0.1% Tween-20 in PBS) three times for 15 minutes each, DKK-1 protein was detected by treatment with ECL solution (GE Healthcare, USA).
# Ha3-II = test: RT-PCR of Ha3-II expression in HHORSC; format: cell-based, human; conditions: peptide 500 nM, 5 μM, 50 μM, 72 hours, FIG. 6
# Description: (§3) Specifically, HHORSC (human hair outer root sheath cell, Sciencell, USA) was seeded in a 6-well culture plate at 4λ10^5 cells/well and then cultured in MSC complete medium (mesenchymal stem cell complete media) for 24 hours. Next, the medium was replaced with serum free MSC complete medium and cultured again for 24 hours. Then, the HHORSC was treated with the peptide of SEQ ID NO: […] in the Preparation Example at concentrations of 500 nM, 5 μM, and 50 μM, respectively, and cultured at 37° C. for 72 hours. As a positive control, EGF was treated at a concentration of 50 nM, and as a negative control, HHORSC without any treatment was used. After washing with PBS, RNA was isolated by treating with 300 μl of easy blue (intron, Korea). Then, cDNA was synthesized using a cDNA synthesis kit (enzynomics, Korea) by quantification using nano drop, and PCR was performed using primers for Ha3-II, Keratin 5, Keratin 14, and Keratin 19 (base sequences of primer are listed in Table 3 below) and PCR premix (enzynomics, Korea). Electrophoresis was performed on a 1.5% agarose gel, and the mRNAs of Ha3-II, Keratin 5, Keratin 14, and Keratin 19 were detected using a band analysis system (Bio-Rad gel image system).
# Keratin 5 = test: RT-PCR of Keratin 5 expression in HHORSC; format: cell-based, human; conditions: peptide 500 nM, 5 μM, 50 μM, 72 hours, FIG. 6
# Description: as §3
# Keratin 14 = test: RT-PCR of Keratin 14 expression in HHORSC; format: cell-based, human; conditions: peptide 500 nM, 5 μM, 50 μM, 72 hours, FIG. 6
# Description: as §3
# Keratin 19 = test: RT-PCR of Keratin 19 expression in HHORSC; format: cell-based, human; conditions: peptide 500 nM, 5 μM, 50 μM, 72 hours, FIG. 6
# Description: as §3
# MSX2 = test: RT-PCR of MSX2 expression in HHGMC; format: cell-based, human; conditions: peptide 500 nM, 5 μM, 50 μM, 72 hours, FIG. 7
# Description: (§4) Specifically, HHGMC (human hair germinal matrix cell, Sciencell, USA) was seeded in a 6-well culture plate at 4λ10^5 cells/well and then cultured in MSC complete medium (mesenchymal stem cell complete media) for 24 hours. Next, the medium was replaced with serum free MSC complete medium and cultured again for 24 hours. Then, the HHGMC was treated with the peptide of SEQ ID NO: 1 prepared in the Preparation Example at concentrations of 500 nM, 5 μM, and 50 μM, respectively, and cultured at 37° C. for 72 hours. As a positive control, EGF was treated at a concentration of 50 nM, and as a negative control, HHGMC without any treatment was used. After washing with PBS, RNA was isolated by treating with 300 μl of easy blue (intron, Korea). Next, cDNA was synthesized using a cDNA synthesis kit (enzynomics, Korea) by quantification using nano drop, and PCR was performed using primers for MSX2 and FOXN1 (base sequences of primer are listed in Table 4 below) and PCR premix (enzynomics, Korea). Electrophoresis was performed on a 1.5% agarose gel, and mRNA of MSX2 and FOXN1 was detected using a band analysis system (Bio-Rad gel image system).
# FOXN1 = test: RT-PCR of FOXN1 expression in HHGMC; format: cell-based, human; conditions: peptide 500 nM, 5 μM, 50 μM, 72 hours, FIG. 7
# Description: as §4
substance,measurement,setting,value
HLPKPI [peptide of the present invention],"absorbance (number of HHFDPC cells, proliferation) compared to the untreated control group","[1]; 5 μM, 50 μM, MTT, 540 nm",higher
same,proliferation promotion effect compared to the positive control group,"[1]; 5 μM, and 50 μM vs minoxidil 1 μM",better proliferation promotion effect than the positive control group
same,phosphorylation of AKT (p-AKT) compared to the control group not treated with the peptide,p-AKT,increased
same,phosphorylation of ERK (p-ERK) compared to the control group not treated with the peptide,p-ERK,increased
same,concentration dependence of β-catenin activation,β-catenin,further promoted depending on the concentration
same,"migration of β-catenin to the nucleus due to activation, compared to the control group not treated with the peptide",β-catenin; Western blotting,increased
same,amount of LEF-1 mRNA compared to the control group without any treatment,LEF-1,increased further
same,amount of c-Myc mRNA compared to the control group without any treatment,c-Myc,increased further
same,amount of cyclin D1 mRNA compared to the control group without any treatment,cyclin D1,increased further
same,concentration dependence of the decrease of DHT-increased DKK-1 expression,[2],decreased again depending on the concentration
same,amount of DKK-1 protein compared to the negative control group (DHT only),[2]; Western blotting,reduced
same,amount of Ha3-II mRNA compared to the control group without treatment,Ha3-II,increased further
same,amount of Keratin 5 mRNA compared to the control group without treatment,Keratin 5,increased further
same,amount of Keratin 14 mRNA compared to the control group without treatment,Keratin 14,increased further
same,amount of Keratin 19 mRNA compared to the control group without treatment,Keratin 19,increased further
same,amount of MSX2 mRNA compared to the untreated control group,MSX2,increased further
same,amount of FOXN1 mRNA compared to the untreated control group,FOXN1,increased further
